Laboratory results as given in PMC9232612, “A phase 1b randomised controlled trial of a glucagon-like peptide-1 and glucagon receptor dual agonist IBI362 (LY3305677) in Chinese patients with type 2 diabetes” (Nature Communications, 2022).
Where two headings read alike, the source gives them in different places.

Assays:
[1] = system: diet-induced obese mice; settings: preclinical data quoted in the protocol, ref not given; cited from earlier work
Excerpt: page 42: IBI362 Innovent Biologics (Suzhou) Co., Ltd. CIBI362A101 3%, abdominal obesity [waist circumference ≥ 90 cm (male) or ≥ 85 cm (female)] patients up to 45. 4% [15]. Although the occurrence of obesity is low compared with Caucasians, body fat tends t o accumulate in the abdominal cavity which is more likely to form abdominal obesity. Weight gain is an independent risk factor for the development of T2DM. Increased body weight or waist circumference can aggravate insulin resistance, increase the risk of T2DM, and the difficulty of glycemic control. Compared with patients with obesity ...

[2] = single dose range of 0.03-5 mg; earlier study, ref not given; cited from earlier work
Excerpt: page 21: safety follow-up visit. The safety data of this patient was collected and included in the analysis. We made this clear in the Results (Lines 210-213). 6. For the tables that present treatment emergent adverse events (Table 2 and Supplementary Table 2), do the numbers in the table correspond to the number of events, or the number of patients who experienced at least one event? Response: Safety data in this study were presented as number of patients (percentage). We made this clear in the footnotes (Fig. 2 and S3) of relevant tables and apologized for the neglect. 7. For Supplementary T ...

[3] = system: mouse glucagon receptors; settings: in vitro; cited from earlier work
Excerpt: (§1) IBI362 (also known as LY3305677) is a once-weekly synthetic peptide analogue of mammalian OXM, with a fatty-acyl moiety to extend the half-life[13].

[4] = system: mouse GLP-1 receptors; settings: in vitro; cited from earlier work
Excerpt: as §1

[5] = system: human glucagon receptors; settings: in vitro; cited from earlier work
Excerpt: as §1

[6] = Non-compartmental pharmacokinetics of IBI362 in plasma; type: in vivo; settings: human, sc; for AUC(0-t): n=8, read-out: AUC0-168h, geometric mean (CV%); for Cmax: n=8, read-out: Cmax, geometric mean (CV%)
Excerpt: Standard non-compartmental pharmacokinetics methods were used to analyze IBI362 plasma concentration data using Pkanalix 2020R1 (Lixoft, Antony, France). Secondary efficacy outcomes included change from baseline to week 12 in HbA1c, fasting plasma glucose (FPG), fasting insulin levels, change from baseline to week 12 in post-mixed-meal tolerance test (post-MTT) glucose, insulin, C peptide, GLP-1 and OXM levels, as well as seven-point self-measured blood glucose (SMBG) profile.
Safety analyses were done in the safety population (defined as all patients who received at least one dose of the study treatment). Pharmacokinetic analyses were done in the pharmacokinetic population (defined as all patients who received at least one dose of IBI362 and had at least one valid plasma concentration assessment). Efficacy analyses were done in the efficacy population (defined as all patients who received at least one dose of the study treatment and had baseline and at least one post-baseline HbA1c assessment). Immunogenicity analyses were done in the immunogenicity population (defined as all patients who received at least one dose of the study treatment and had at least one post-baseline ADA result). […]
Table 3. PK/PD Sampling Schedule
sampling time hour hour hour hour 1 hour hour hour for
collection - - min min ± 30 mi 1h 2h 3h 4h 5h - ± 2h - min min - ± 2h - min min - - 2h 12h
Drug √ √ √ √ √ √ √ √ √ √ √ √ √ √ √
PK Sampling ● ● ● ● ● ● ● ● ● ● ● ● ● ● ● ● ● ● ● ● ● ● ●
1. PK sampling time points: Week 1 (intensive PK) PK sampling points: within 1 h before administration, 4 h ± 10 min, 8 h ± 20 min, 12 h ± 30 min, 24 h ± 1 h (Day 2), 48 h ± 2 h (Day 3), 72 h ± 3 h (Day 4), 96 h
± 4 h (Day 5), 120 h ± 5 h (Day 6) and within 1 h before administration on Day 8. Week 4: D22 for 48h ± 2h. Sparse sampling in Week 5: within 1 h before administration on Day 29, 4 h ± 10 min, 8 h ± 20 min after
administration and within 1 h before administration on Day 36. Week 8: D50 48h ± 2h. Sparse sampling in Week 9: within 1 h before administration on Day 57, 4 h ± 10 min, 8 h ± 20 min after administration and within
1 h before administration on Day 64. Sparse sampling at Week 12: Within 1h before administration, 48h ± 2h after administration (D80) and 168h ± 12h after administration (D85) on D78. If a patient fails to complete
the study and withdraws from the study prematurely, PK samples will be collected at early termination visit. Three (3) mL samples will be collected at each blood collection site and detailed procedures will be provided
in the central laboratory manual.
2. PD sampling (insulin/C-peptide/plasma glucose/glucagon/OXM/GLP-1) points: Week 1: within 48 hours ± 2 hours after dosing (Day 3), within 1 hour before dosing on Day 8; Week 5: within 1 hour before dosing
on Day 29; Week 9: within 1 hour before dosing on Day 57; Week 12: within 1 hour before dosing on D78 and 168 hours ± 12 hours after dosing (D85). PD samples will be collected at the early termination visit, if a
patient withdraw early due to failure to complete the study. All PD sampling will be performed in the fasted state. A total of 9 mL will be collected from each blood collection site, and the detailed operation process will
be described in the central laboratory manual.

[7] = after the first dose (1.0 mg s.c.), 3.0 mg cohort
[8] = after the first dose (1.5 mg s.c.), 4.5 mg cohort
[9] = after the first dose (2.0 mg s.c.), 6.0 mg cohort

CC(C)C[C@H](NC(=O)[C@H](CC(C)C)NC(=O)[C@H](Cc1c[nH]c2ccccc12)NC(=O)[C@H](CCC(=O)O)NC(=O)[C@@H](NC(=O)[C@H](Cc1ccccc1)NC(=O)[C@H](CCC(=O)O)NC(=O)[C@H](CCCCNC(=O)COCCOCCNC(=O)COCCOCCNC(=O)CC[C@H](NC(=O)CCCCCCCCCCCCCCCCCCC(=O)O)C(=O)O)NC(=O)[C@H](C)NC(=O)[C@H](CCCCN)NC(=O)[C@H](CCCCN)NC(=O)[C@H](CCC(=O)O)NC(=O)[C@H](CC(=O)O)NC(=O)[C@H](CC(C)C)NC(=O)[C@H](Cc1ccc(O)cc1)NC(=O)[C@H](CCCCN)NC(=O)[C@H](CO)NC(=O)[C@H](Cc1ccc(O)cc1)NC(=O)[C@H](CC(=O)O)NC(=O)[C@H](CO)NC(=O)[C@@H](NC(=O)[C@H](Cc1ccccc1)NC(=O)[C@@H](NC(=O)CNC(=O)[C@H](CCC(N)=O)NC(=O)C(C)(C)NC(=O)[C@@H](N)Cc1c[nH]cn1)[C@@H](C)O)[C@@H](C)O)C(C)C)C(=O)N[C@@H](CCC(=O)O)C(=O)NCC(=O)NCC(=O)N1CCC[C@H]1C(=O)N[C@@H](CO)C(=O)N[C@@H](CO)C(=O)NCC(N)=O [IBI362]
weight loss effects (decreased appetite, weight loss) [1]: significant weight loss effects | pharmacokinetic profile [2]: linear | binding [3]: potently bound | binding [4]: potently bound | binding [5]: potently bound | Tmax ([6]; after first s.c. dose, all IBI362 cohorts, n=24, read-out: median Tmax): ~72 h | AUC(0-t) [6, 7]: 12300 ng·h/mL | Cmax [6, 7]: 89.5 ng/mL | Tmax ([6]; after the first dose (1.0 mg s.c.), 3.0 mg cohort, n=8, read-out: Tmax, median (range)): 48.2 h | AUC(0-t) [6, 8]: 16500 ng·h/mL | Cmax [6, 8]: 109 ng/mL | Tmax ([6]; after the first dose (1.5 mg s.c.), 4.5 mg cohort, n=8, read-out: Tmax, median (range)): 72.2 h | AUC(0-t) [6, 9]: 22100 ng·h/mL | Cmax [6, 9]: 170 ng/mL | Tmax ([6]; after the first dose (2.0 mg s.c.), 6.0 mg cohort, n=8, read-out: Tmax, median (range)): 84 h
